Source: PubChem BioAssay AID2060509 (Molecular Pharmacology Branch, DTP, NCI, 2025)
pIC50: −log10 of the molar value.

System: 485176-168-R4-J1-PDC spheroids with HUVEC/MSC, viability
Assay: Anticancer human tumor 485176-168-R4-J1-PDC patient-derived pancreatic adenocarcinoma cell line growth inhibition [GQUAD]
Conditions: for pIC50: curve of first compound; for viability, T/C: stronger effect = lower value
In short: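 Multi-cell-type spheroids of tumor cells with HUVEC and mesenchymal stem cells, treated with drug combinations. Concentrations descend in half-log steps from near clinical Cmax, or from 10 microM where Cmax is unknown; viability read-out.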

[1] = second compound 0.0316 µM, first compound 0.0316 µM
[2] = second compound 0.0316 µM, first compound 0.1 µM
[3] = second compound 0.0316 µM, first compound 0.316 µM
[4] = second compound 0.0316 µM, first compound 1 µM
[5] = second compound 0.0316 µM, first compound 3.16 µM
[6] = second compound 0.0316 µM, first compound 10 µM
[7] = second compound 0.1 µM, first compound 0.0316 µM
[8] = second compound 0.1 µM, first compound 0.1 µM
[9] = second compound 0.1 µM, first compound 0.316 µM
[10] = second compound 0.1 µM, first compound 1 µM
[11] = second compound 0.1 µM, first compound 3.16 µM
[12] = second compound 0.1 µM, first compound 10 µM
[13] = second compound 0.316 µM, first compound 0.0316 µM
[14] = second compound 0.316 µM, first compound 0.1 µM
[15] = second compound 0.316 µM, first compound 0.316 µM
[16] = second compound 0.316 µM, first compound 1 µM
[17] = second compound 0.316 µM, first compound 3.16 µM
[18] = second compound 0.316 µM, first compound 10 µM
[19] = second compound 1 µM, first compound 0.0316 µM
[20] = second compound 1 µM, first compound 0.1 µM
[21] = second compound 1 µM, first compound 0.316 µM
[22] = second compound 1 µM, first compound 1 µM
[23] = second compound 1 µM, first compound 3.16 µM
[24] = second compound 1 µM, first compound 10 µM
[25] = second compound 3.16 µM, first compound 0.0316 µM
[26] = second compound 3.16 µM, first compound 0.1 µM
[27] = second compound 3.16 µM, first compound 0.316 µM
[28] = second compound 3.16 µM, first compound 1 µM
[29] = second compound 3.16 µM, first compound 3.16 µM
[30] = second compound 3.16 µM, first compound 10 µM
[31] = second compound 10 µM, first compound 0.0316 µM
[32] = second compound 10 µM, first compound 0.1 µM
[33] = second compound 10 µM, first compound 0.316 µM
[34] = second compound 10 µM, first compound 1 µM
[35] = second compound 10 µM, first compound 3.16 µM
[36] = second compound 10 µM, first compound 10 µM
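Also: spheroids exposed to compounds for seven days before readout.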
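For viability, T/C in this document: percent viability relative to DMSO vehicle control wells as 100%.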

O=c1[nH]cc(F)c(=O)[nH]1 + Cc1cnc(CNC(=O)c2c(=O)c3ccc(N4CCCN(C)CC4)nc3n3c2sc2ccccc23)cn1
pIC50 (second compound 0.0316 µM): 6.07 | pIC50 (second compound 0.1 µM): 6.57 | pIC50 (second compound 0.316 µM): 6.61 | pIC50 (second compound 1 µM): 6.69 | pIC50 (second compound 3.16 µM): > 7.50 | pIC50 (second compound 10 µM): > 7.50 | viability, T/C [1]: 84.7% | viability, T/C [2]: 77.4% | viability, T/C [3]: 66.1% | viability, T/C [4]: 45.9% | viability, T/C [5]: 43.5% | viability, T/C [6]: 43.6% | viability, T/C [7]: 63.3% | viability, T/C [8]: 73.5% | viability, T/C [9]: 47.2% | viability, T/C [10]: 47.1% | viability, T/C [11]: 46.4% | viability, T/C [12]: 43.6% | viability, T/C [13]: 53.8% | viability, T/C [14]: 66.1% | viability, T/C [15]: 47.4% | viability, T/C [16]: 45.3% | viability, T/C [17]: 35.1% | viability, T/C [18]: 45.7% | viability, T/C [19]: 50.5% | viability, T/C [20]: 54.7% | viability, T/C [21]: 48.3% | viability, T/C [22]: 38.2% | viability, T/C [23]: 36.4% | viability, T/C [24]: 41% | viability, T/C [25]: 40.6% | viability, T/C [26]: 44.1% | viability, T/C [27]: 37.2% | viability, T/C [28]: 32.8% | viability, T/C [29]: 34.5% | viability, T/C [30]: 31.3% | viability, T/C [31]: 41.5% | viability, T/C [32]: 45% | viability, T/C [33]: 33.5% | viability, T/C [34]: 30.3% | viability, T/C [35]: 34.4% | viability, T/C [36]: 34.3%

CC(=O)O[C@H]1C(=O)[C@@]2(C)[C@H]([C@H](OC(=O)c3ccccc3)[C@]3(O)C[C@H](OC(=O)[C@H](O)[C@@H](NC(=O)c4ccccc4)c4ccccc4)C(C)=C1C3(C)C)[C@]1(OC(C)=O)CO[C@@H]1C[C@@H]2O + Cc1[nH]c2ccc(F)cc2c1-c1nc2c3cccnc3c3ncccc3c2[nH]1
pIC50 (second compound 0.0316 µM): > 7.50 | pIC50 (second compound 0.1 µM): > 7.50 | pIC50 (second compound 0.316 µM): > 7.50 | pIC50 (second compound 1 µM): > 7.50 | pIC50 (second compound 3.16 µM): > 7.50 | pIC50 (second compound 10 µM): > 7.50 | viability, T/C [1]: 29.9% | viability, T/C [2]: 10.3% | viability, T/C [3]: 10.7% | viability, T/C [4]: 10.7% | viability, T/C [5]: 10.6% | viability, T/C [6]: 11.5% | viability, T/C [7]: 29.6% | viability, T/C [8]: 13.1% | viability, T/C [9]: 16% | viability, T/C [10]: 12.4% | viability, T/C [11]: 12.3% | viability, T/C [12]: 10% | viability, T/C [13]: 24.9% | viability, T/C [14]: 14.4% | viability, T/C [15]: 14.9% | viability, T/C [16]: 9.44% | viability, T/C [17]: 12.5% | viability, T/C [18]: 11.7% | viability, T/C [19]: 28.6% | viability, T/C [20]: 13.2% | viability, T/C [21]: 12% | viability, T/C [22]: 13.2% | viability, T/C [23]: 9.22% | viability, T/C [24]: 10.8% | viability, T/C [25]: 24.5% | viability, T/C [26]: 12.1% | viability, T/C [27]: 13.4% | viability, T/C [28]: 12.2% | viability, T/C [29]: 11.3% | viability, T/C [30]: 11.8% | viability, T/C [31]: 28% | viability, T/C [32]: 9.49% | viability, T/C [33]: 14.4% | viability, T/C [34]: 14.4% | viability, T/C [35]: 11.1% | viability, T/C [36]: 12.1%

Cc1cccc(N(C)C(=O)C2C(O)CCN2c2nc(C)cc(C(F)(F)F)c2C#N)c1 (stereo not drawn) + Cc1cnc(CNC(=O)c2c(=O)c3ccc(N4CCCN(C)CC4)nc3n3c2sc2ccccc23)cn1
pIC50 (second compound 0.0316 µM): < 5.00 | pIC50 (second compound 0.1 µM): < 5.00 | pIC50 (second compound 0.316 µM): < 5.00 | pIC50 (second compound 1 µM): < 5.00 | pIC50 (second compound 3.16 µM): > 7.50 | pIC50 (second compound 10 µM): > 7.50 | viability, T/C [1]: 91.9% | viability, T/C [2]: 100% | viability, T/C [3]: 89% | viability, T/C [4]: 97.2% | viability, T/C [5]: 96% | viability, T/C [6]: 98.3% | viability, T/C [7]: 64.2% | viability, T/C [8]: 78% | viability, T/C [9]: 78.6% | viability, T/C [10]: 67.9% | viability, T/C [11]: 65.8% | viability, T/C [12]: 67.8% | viability, T/C [13]: 66.8% | viability, T/C [14]: 64% | viability, T/C [15]: 56.3% | viability, T/C [16]: 60.9% | viability, T/C [17]: 66.6% | viability, T/C [18]: 60.5% | viability, T/C [19]: 52% | viability, T/C [20]: 45.5% | viability, T/C [21]: 53.9% | viability, T/C [22]: 45.9% | viability, T/C [23]: 57.1% | viability, T/C [24]: 47.5% | viability, T/C [25]: 44% | viability, T/C [26]: 47.9% | viability, T/C [27]: 39.5% | viability, T/C [28]: 43.3% | viability, T/C [29]: 47.8% | viability, T/C [30]: 40.7% | viability, T/C [31]: 42.7% | viability, T/C [32]: 39% | viability, T/C [33]: 43.4% | viability, T/C [34]: 38.1% | viability, T/C [35]: 45.7% | viability, T/C [36]: 40.6%

CC(=O)O[C@H]1C(=O)[C@@]2(C)[C@H]([C@H](OC(=O)c3ccccc3)[C@]3(O)C[C@H](OC(=O)[C@H](O)[C@@H](NC(=O)c4ccccc4)c4ccccc4)C(C)=C1C3(C)C)[C@]1(OC(C)=O)CO[C@@H]1C[C@@H]2O + Cc1cnc(CNC(=O)c2c(=O)c3ccc(N4CCCN(C)CC4)nc3n3c2sc2ccccc23)cn1
pIC50 (second compound 0.0316 µM): > 7.50 | pIC50 (second compound 0.1 µM): > 7.50 | pIC50 (second compound 0.316 µM): > 7.50 | pIC50 (second compound 1 µM): > 7.50 | pIC50 (second compound 3.16 µM): > 7.50 | pIC50 (second compound 10 µM): > 7.50 | viability, T/C [1]: 30% | viability, T/C [2]: 13.6% | viability, T/C [3]: 11.2% | viability, T/C [4]: 12.7% | viability, T/C [5]: 10.6% | viability, T/C [6]: 9.91% | viability, T/C [7]: 27.1% | viability, T/C [8]: 19% | viability, T/C [9]: 12% | viability, T/C [10]: 12.8% | viability, T/C [11]: 11.7% | viability, T/C [12]: 9.87% | viability, T/C [13]: 22% | viability, T/C [14]: 14.2% | viability, T/C [15]: 10.4% | viability, T/C [16]: 11.8% | viability, T/C [17]: 13.8% | viability, T/C [18]: 12.9% | viability, T/C [19]: 23.1% | viability, T/C [20]: 17.3% | viability, T/C [21]: 17.5% | viability, T/C [22]: 11.9% | viability, T/C [23]: 11.8% | viability, T/C [24]: 14.7% | viability, T/C [25]: 26% | viability, T/C [26]: 17.8% | viability, T/C [27]: 12.8% | viability, T/C [28]: 12.8% | viability, T/C [29]: 15.3% | viability, T/C [30]: 12.7% | viability, T/C [31]: 23.4% | viability, T/C [32]: 14.8% | viability, T/C [33]: 14.5% | viability, T/C [34]: 12.9% | viability, T/C [35]: 12.8% | viability, T/C [36]: 11.2%
